# Laboratory results reported in patent US10563263B2, “Genetic polymorphisms associated with statin response and cardiovascular diseases, methods of detection and uses thereof” (CELERA CORPORATION, priority 2010, dated 2020).
# Test system: CHD (fatal CHD, definite non-fatal MI, or revascularization)
# Assay: CARE: SNP by pravastatin treatment interaction, logistic regression (synergy index), CHD endpoint
# Format: in vivo, human
# Source text: CARE was a secondary prevention trial and WOSCOPS was a primary prevention trial.
# The CHD endpoint was defined in the analyses herein of CARE as a composite endpoint of fatal CHD, definite non-fatal MI, or revascularization, and was defined in the analyses herein of WOSCOPS as a composite endpoint of death from CHD, nonfatal MI, or revascularization. In both the CARE and WOSCOPS analyses herein, the CVD endpoint was defined as a composite endpoint of CHD or stroke. […] Revascularization, which can include percutaneous transluminal coronary angioplasty (PTCA), stent placement, and coronary artery bypass graft (CABG), are medical interventions that indicate the presence of CHD.
# Cohort and case-only study designs were used to identify SNPs associated with response to statin treatment.
# For each SNP, a logistic regression model having treatment status as the dependent variable and SNP as the independent predictor variable was performed, with terms for age, sex and race included in the model as covariates. The anti-log of the regression coefficient corresponding to the SNP is an estimate of the synergy index (SI) (Davis et al., “Imputing gene-treatment interactions when the genotype distribution is unknown using case-only and putative placebo analyses-a new method for the Genetics of Hypertension Associated Treatment (GenHAT) study”, Statistics in Medicine 23: (2004), pages 2413-2427). The SI is a ratio of odds ratios: for example in the CARE and WOSCOPS studies, the SI represents the factor by which the odds-ratio of statin treatment, compared with placebo, among major homozygous individuals is multiplied by in order to obtain the odds-ratio of treatment vs. placebo among heterozygous individuals; and multiplied by a second time to obtain the odds-ratio of treatment vs. placebo in minor homozygous individuals. The case-only study design results in a valid estimate of the SI under the assumption that genotype and treatment are independent in the population. In a randomized clinical trial, genotype and treatment are independent by design. The p-value for the regression coefficient corresponding to the SNP results from a test of the null hypothesis that the regression coefficient is equal to zero (SI is equal to one) and thus small p-values indicate the SI is unlikely equal to one and that the effect of treatment likely differs by genotype.
# A case-only study design was used to test whether the reduction of CHD events by statin therapy (for CARE and WOSCOPS studies) differed according to genotype (a treatment by SNP interaction) for each SNP evaluated in the study.
structure (smiles),measurement,setting,value
"CC[C@H](C)C(=O)O[C@H]1C[C@H](O)C=C2C=C[C@H](C)[C@H](CC[C@@H](O)C[C@@H](O)CC(=O)O)[C@H]21 [Pravastatin, pravastatin]",CARE OR,"rs3732788 allele G vs A (ref), Source cohort",0.56
same,CARE OR,"rs3798544 allele A vs G (ref), Source cohort",1.47
same,CARE OR,"rs3998860 allele A vs G (ref), Source cohort",0.58
same,CARE OR,"rs4289236 allele A vs G (ref), Source cohort",1.37
same,CARE OR,"rs4611134 allele A vs G (ref), Source cohort",1.54
same,CARE OR,"rs4643388 allele G vs A (ref), Source cohort",1.32
same,CARE OR,"rs4682522 allele C vs A (ref), Source cohort",0.59
same,CARE OR,"rs4830819 allele G vs A (ref), Source cohort",0.57
same,CARE OR,"rs4869033 allele G vs A (ref), Source cohort",0.31
same,CARE OR,"rs4924215 allele A vs G (ref), Source cohort",1.77
same,CARE OR,"rs4986146 allele A vs G (ref), Source cohort",0.62
same,CARE OR,"rs4993917 allele A vs C (ref), Source cohort",0.57
same,CARE OR,"rs5017584 allele A vs G (ref), Source cohort",1.61
same,CARE OR,"rs6075209 allele A vs G (ref), Source cohort",0.63
same,CARE OR,"rs6080603 allele A vs C (ref), Source cohort",0.59
same,CARE OR,"rs6491586 allele G vs A (ref), Source cohort",1.59
same,CARE OR,"rs6505669 allele G vs A (ref), Source cohort",1.70
same,CARE OR,"rs6911817, allele A1 A (non-ref), A2 G (ref), source cohort, endpoint/model not given",2.15
same,CARE OR,"rs7094941, allele A1 G (non-ref), A2 A (ref), source cohort, endpoint/model not given",0.78
same,CARE OR,"rs7179134 allele A vs G (ref), Source cohort",3.54
same,CARE OR,"rs7193741 allele A vs C (ref), Source cohort",2.16
same,CARE OR,"rs7327364 allele A vs G (ref), Source cohort",0.69
same,CARE OR,"rs7497613, allele A1 A (non-ref), A2 G (ref), source cohort, endpoint/model not given",0.65
same,CARE OR,"rs7616936, allele A1 C (non-ref), A2 A (ref), source cohort, endpoint/model not given",1.47
same,CARE OR,"rs7705993 allele G vs A (ref), Source cohort",1.50
same,CARE OR,"rs7767024, allele A1 A (non-ref), A2 G (ref), source cohort, endpoint/model not given",1.32
same,CARE OR,"rs7910196, allele A1 G (non-ref), A2 A (ref), source cohort, endpoint/model not given",1.36
same,CARE OR,"rs8051893 allele A vs G (ref), Source cohort",0.69
same,CARE OR,"rs8109631 allele A vs G (ref), Source cohort",1.53
same,CARE OR,"rs9375683 allele G vs A (ref), Source cohort",1.63
same,CARE OR,"rs9436636 allele A vs G (ref), Source cohort",1.34
same,CARE OR,"rs9446187 allele A vs G (ref), Source cohort",1.92
same,CARE OR,"rs9658127, allele A1 A (non-ref), A2 G (ref), source cohort, endpoint/model not given",2.03
same,CARE OR,"rs10088505 allele A vs G (ref), Source Caseonly",1.52
same,CARE OR,"rs10088524, allele A1 G (non-ref), A2 A (ref), source cohort, endpoint/model not given",1.46
same,CARE OR,"rs10103297, allele A1 A (non-ref), A2 G (ref), source cohort, endpoint/model not given",1.84
same,CARE OR,"rs10120126 allele G vs A (ref), Source CaseOnly",0.53
same,CARE OR,"rs10189905 allele C vs A (ref), Source cohort",0.50
same,CARE OR,"rs10500736 allele G vs A (ref), Source cohort",0.61
same,CARE OR,"rs10517923 allele A vs G (ref), Source cohort",1.62
same,CARE OR,"rs10814422 allele G vs A (ref), Source cohort",0.64
same,CARE OR,"rs10849442 allele A vs G (ref), Source Caseonly",0.56
same,CARE OR,"rs10875941, allele A1 G (non-ref), A2 A (ref), source cohort, endpoint/model not given",0.73
same,CARE OR,"rs10973013 allele A vs G (ref), Source cohort",0.59
same,CARE OR,"rs11076320 allele C vs A (ref), Source cohort",0.64
same,CARE OR,"rs11082492 allele A vs C (ref), Source cohort",1.46
same,CARE OR,"rs11925875 allele A vs G (ref), Source cohort",0.72
same,CARE OR,"rs12556591 allele G vs A (ref), Source cohort",0.57
same,CARE OR,"rs12657484, allele A1 G (non-ref), A2 A (ref), source cohort, endpoint/model not given",1.36
same,CARE OR,"rs13279522 allele G vs A (ref), Source cohort",0.62
same,CARE OR,"rs13314266 allele G vs A (ref), Source cohort",0.60
same,CARE OR,"rs13318232 allele G vs A (ref), Source cohort",0.60
same,CARE OR,"rs16861467, allele A1 G (non-ref), A2 A (ref), source cohort, endpoint/model not given",0.60
same,CARE OR,"rs17076974 allele A vs G (ref), Source cohort",1.46
same,CARE OR,"rs17546598 allele A vs G (ref), Source cohort",1.57
same,CARE OR,"rs17706237 allele G vs A (ref), Source CaseOnly",1.80
same,CARE OR,"rs17716275, allele A1 A (non-ref), A2 G (ref), source cohort, endpoint/model not given",1.91
same,CARE OR,"rs72746987 allele A vs G (ref), Source cohort",0.43
